BigSolDB 2.1

O=C1c2cccc(O)c2C(=O)c2c(O)cc(CO)cc21
solubility (mole fraction)
Conditions	278.15 K	283.15 K	288.15 K	293.15 K	298.15 K	303.15 K	308.15 K	313.15 K	318.15 K
in ethanol	1.72e-05	2.11e-05	2.45e-05	3.09e-05	3.74e-05	4.36e-05	5.05e-05	6.2e-05	7.56e-05
in methanol	1.66e-06	2.23e-06	3.1e-06	4.29e-06	5.39e-06	7.71e-06	1.13e-05	1.6e-05	2.33e-05
in n-butanol	4.59e-05	5.17e-05	6.49e-05	7.71e-05	9.05e-05	0.000102	0.000122	0.000137	0.00016
in n-pentanol	7e-05	8.33e-05	0.0001	0.000118	0.000138	0.000158	0.00018	0.000207	0.000245
in n-propanol	1.82e-05	2.49e-05	3.07e-05	4e-05	5.26e-05	6.56e-05	7.38e-05	9.21e-05	0.000116
in sec-butanol	1.62e-05	2.05e-05	2.71e-05	3.67e-05	4.52e-05	5.44e-05	6.76e-05	8.02e-05	9.79e-05
in water	2.2e-07	3.21e-07	4.43e-07	5.69e-07	8.07e-07	1.21e-06	1.64e-06	2.22e-06	2.82e-06
